Experimental data: article PMC11923649, “Novel C-2 Aromatic Heterocycle-Substituted Triterpenoids Inhibit Hedgehog Signaling in GLI1 Overexpression Cancer Cells” (ACS Omega, 2025)
pIC50: −log10 of the molar value.

What was measured:
[1] = Plasma protein binding, Rapid Equilibrium Dialysis; format: in vitro ADME; details: read-out: Plasma protein binding % Fraction bound (converted)
Experimental: Data from a plasma protein binding study can inform about distribution into tissues of the body and reduction in the amount of drug available to be metabolized or cleared from the body. The measurement of plasma protein binding was performed using a Rapid Equilibrium Dialysis device; 11a and 11b compounds reported a percent of fraction bound around 90%. For the microsomal stability assay, human liver microsomes and NADPH cofactor were used to assess phase I oxidation by cytochrome P450 and flavin monooxygenases. The intrinsic clearance calculated from the microsomal stability assay indicated the medium category for both derivatives (Table 3).

[2] = test system: Gli1 protein in DU-145 cells; experiment: Western blot of Gli1 in DU-145 cells, 24 h; format: cell-based, human; details: DU-145, 24 h, immunoblot
Experimental: In order to verify that compounds 11a and 11b inhibit the proliferation of A549 and DU-145 through Hh inhibition, we monitored the expression of Hh target genes in these cell lines (Figure 2). […] The decreased protein expression of Gli1 targets Cyclin D1, N-Myc, and Bcl-2 strongly indicates inhibition of its transcriptional activity, and their downregulation correlates with the data obtained by the U-87 MG-Gli-FLuc reporter assay. Importantly, these proteins are involved in cell cycle progression, proliferation, and survival. N-Myc amplification or deregulation of transcription, stability, and degradation is associated with many malignancies,[34] and the observed downregulation induced by 11a and 11b may reduce its oncogenic effect.
Figure 2 Effect of compounds 11a and 11b on the protein expression of the Gli1 transcription factor and its transcriptional targets in A549 (A) and DU145 (B) cells following 24 h of incubation. […]
Cells were washed with PBS and lysed on ice in 200 μL of RIPA (Radioimmunoprecipitation Assay) buffer for 30 min. Then, cell lysates were clarified by centrifugation (15000 rpm, 20 min, 4 °C), and the protein concentration in the collected supernatants was determined using a BCA method (Bicinchoninic Acid test). […] Luminescence signal detection was performed by using an Odyssey FC instrument (LI-COR Biosciences).

[3] = Caco-2 permeability assay; format: in vitro ADME; details: human, Caco-2; for Papp A→B: cm/s, read-out: Caco-2 Papp (×10^−6)
From the text: (§1) The Parallel Artificial Membrane Permeability Assay (PAMPA) has emerged as a primary screen for determining passive transcellular permeability. […] The Caco-2 and MDCK-MDR1 permeability assays are established models of intestinal[37] and blood-brain barriers, respectively.[38]

[4] = test system: MDR1; experiment: Caco-2 permeability assay; format: in vitro ADME; details: human, Caco-2; B–A / A–B
From the text: as §1

[5] = test system: Caco-2 monolayer; experiment: Caco-2 permeability assay; format: in vitro ADME
From the text: as §1

[6] = test system: DU-145 (prostate cancer); experiment: MTS cytotoxicity assay, 72 h, DU-145; format: cell-based, human; details: Homo sapiens, DU-145, 72 h, Table 1
How it was run: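 Seed cells; next day add compound (50–0.0975 μmol/L, 2-fold steps); incubate 72 h, 37 °C, 5% CO2; add MTS/PMS, 1–4 h; read A490; fit IC50.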

Structure (SMILES)	fraction unbound [1]	Endogenous Gli1 protein level [2]	recovery [3] [%]	Papp A→B [3] [×10⁻⁶ cm/s]	efflux ratio [4]	Caco-2 Active efflux [5]	pIC50 [6]
C=C(C)[C@@H]1CC[C@]2(C(=O)O)CC[C@]3(C)C(CCC4[C@@]5(C)C=C(c6ccoc6)C(=O)C(C)(C)C5CC[C@]43C)C12 (some centres unmarked) [Compound 11b, 2-(Furan-3-yl)-3-oxolupa-1,20(29)-dien-28-oic acid]	~0.1	inhibit the endogenous Gli1 protein level in a dose-dependent manner	58.2	1.07	1.77	No (less than or very close to the limit of active and passive efflux (≤2))	5.24
C=C(C)[C@@H]1CC[C@]2(C(=O)O)CC[C@]3(C)C(CCC4[C@@]5(C)C=C(c6ccco6)C(=O)C(C)(C)C5CC[C@]43C)C12 (some centres unmarked) [Compound 11a, 2-(Furan-2-yl)-3-oxolupa-1,20(29)-dien-28-oic acid]	~0.1	inhibit the endogenous Gli1 protein level in a dose-dependent manner	68.5	0.44	2.33	Yes	5.10
